These results are taken from patent US20130160151A1, “TRANSGENIC ANIMAL AS A MODEL FOR IDENTIFYING ADULT STEM CELLS, AND USES THEREOF” (Universite Pierre et Marie Curie (PARIS 6), priority 2010, published 2013).

“Also recorded” adds a separate entry of the source.

Assay [1] deals with β-gal positive cells. Kind of assay: In vitro culture of FAC-sorted blue (β-gal positive) cells with or without EGF. The class given is cell-based. The note with it: medium containing EGF vs without EGF; FAC-sorted blue cells of the transgenic mouse. On the procedure:
FIGS. 6A and 6B show in vitro culture of β-gal positive cells after FAC sorting in absence (6A) or in presence (6B) of EGF.
The inventors isolated cells from a transgenic mouse as obtained in Example 1, and isolated them by FAC sorting. Only the blue cells were cultured in vitro.
Then for proof of concept, the cells were contacted with human recombinant EGF or without EGF. The growth factor was tested for its ability to keep the cells blue over time.

The subject of assay [2] is skin stem cells. Kind of assay: Screening feasibility: number of blue clones per well of skin stem cells treated with factors. The class given is cell-based, mouse. The note with it: skin stem cells from 7 week-old Pw1nlacZ mice, 2 cells/μl, factors added after 3 days in culture, a week treatment, duplicates. On the procedure: FIG. 9 is a graph showing the number of clones of skin stem cells after a week treatment with various factors (EGF, BMP2, BMP4, Activin A).
Fluorescence-activated cell sorting has been performed, dorsal skin from 7 week-old Pw1^nlacZ mice (n=3-5) were collected and cell preparation was obtained. For detection of nuclear β-galactosidase activity, a fluorescein di-β-D-galactopyranoside (FDG) staining kit (Invitrogen) was used according to manufacturer's instructions. Cells were then plated on 24 or 96 wells at density of 2 cells/μl. The cells were treated with 4 different factors after 3 days in culture: • EGF, Human recombinant protein from R&D system • BMP2, Human recombinant protein from Humanzyme • BMP4, Human recombinant protein from Humanzyme • Activin A, Human recombinant protein from Humanzyme
The analysis of the effect of different factors has been done using a simple readout: counting the number of blue clones per well. […] This experiment has been done in duplicates.

Consider “EGF: Human recombinant protein from R&D system”, for which, in assay [1], the “number of blue cells per clone” value is recorded as “greater; also recorded: higher” and the “number of blue clones” value was “greater; also recorded: higher”. For the same substance, the “number of blue clones per well (cell growth)” value in assay [2] is listed as “allows the cells to grow”.
